According to patent publication US20250281461A1 (The Board of Supervisors of Louisiana State University and …, priority 2021, published 2025):
Several values for one entry are separate records, joined by “and”; a condition that tells them apart may be missing. Identical values can stand only once.

Experiments:
[1] = system: SARS-COV-2 virus (USA WA1/2020); assay: ACE2 mouse model, lung tissue RT-qPCR viral titer; assay type: in vivo; details: K18-hACE2 mice; for Lung Tissue RT-qPCR Viral Titer Log10, Group Mean: Day 6, 7 animals
[2] = system: SARS-COV-2 virus (USA WA1/2020); assay: ACE2 mouse model, TCID50 analysis of lung samples; assay type: in vivo; details: K18-hACE2 mice, Day 6 lung; for Titer, TCID50 analysis of lung samples, Group Mean: 7 animals; for Titer, TCID50 analysis of lung samples, individual animals: scored on Vero C1008 (E6) cells after 120 hours
Calu-3 = assay: Cytotoxicity of Imatinib in Calu-3 cells; details: any concentration tested (up to 100 μM)
[3] = system: SARS-COV-2 (USA-WA1/2020 Isolate); assay type: cell-based; details: Calu-3 cells, Mebendazole 2.3 nM-5000 nM
[4] = system: human lung cancer (Calu-3) cells
[5] = cited from earlier work
in vitro = details: human
[6] = pre-clinical models, oral administration; cited from earlier work
[7] = Day 6, 50 mg/kg/day Mebendazole and/or 100 mg/kg/day Imatinib, oral gavage once daily

| SMILES | Lung Tissue RT-qPCR Viral Titer Log10, Group Mean [1] | Lung Tissue RT-qPCR Viral Titer Log10, individual animals [1, 7] | Lung Tissue RT-qPCR Viral Titer, individual animals [1, 7] | Titer, TCID50 analysis of lung samples, Group Mean [2] | Titer, TCID50 analysis of lung samples, individual animals [2] | cytotoxicity (Vero 76 cells) | cytotoxicity (Calu-3) | Inhibition of SARS-COV-2 (maximum reached) [3] | inhibition of cell viability ([4]; all tested concentrations up to 5000 nM) | CC50 ([4]; read-out: CC50 (cytotoxic concentration), estimated from absence of cytotoxicity up to 5000 nM) | plasma concentrations ([5]; 100 mg twice daily for three consecutive days) | higher exposure to steady-state ([5]; long-term oral administration) | oral dose excreted in urine ([5]; oral dose) | oral bioavailability ([5]; reported) | CC50 (in vitro) | bioavailability [6] |
| --- | --- | --- | --- | --- | --- | --- | --- | --- | --- | --- | --- | --- | --- | --- | --- | --- |
| Cc1ccc(NC(=O)c2ccc(CN3CCN(C)CC3)cc2)cc1Nc1nccc(-c2cccnc2)n1 [Imatinib] | 7.8 | 7.9 (2×) and 8.0 and 7.3 and 8.5 and 7.6 and 7.7 | 7.80E+07 and 9.13E+07 and 2.15E+07 and 7.53E+07 and 3.12E+08 and 3.67E+07 and 5.37E+07 | 7.4 Log10 TCID50/mL | 8.0 Log10 TCID50/mL and 6.5 Log10 TCID50/mL and 8.3 Log10 TCID50/mL and 7.5 Log10 TCID50/mL and 5.3 Log10 TCID50/mL and 7.6 Log10 TCID50/mL and 8.5 Log10 TCID50/mL | no cytotoxicity was observed | no cytotoxicity was observed | – | – | – | – | – | – | – | – | – |
| COC(=O)Nc1nc2ccc(C(=O)c3ccccc3)cc2[nH]1 [Mebendazole] | 7.6 | – | – | 5.8 Log10 TCID50/mL | 6.0 Log10 TCID50/mL and 5.3 Log10 TCID50/mL (2×) and 4.8 Log10 TCID50/mL and 5.5 Log10 TCID50/mL and 7.3 Log10 TCID50/mL and 6.5 Log10 TCID50/mL | – | – | 100% | ~0% | > 5 µM | ≤ 0.03 μg/mL and ≤ 0.1 μM | ~3 fold | < 2% | 17% | > 5 µM | about 15% |
